Laboratory results taken from PubChem BioAssay AID2060897 (Molecular Pharmacology Branch, DTP, NCI, 2025).
“And” between values parts separate entries of the source, which are not always exact repeats. Identical values can stand only once.

Tested on: 966289-007-R4-J1-PDC complex spheroid viability
Assay: Anticancer human tumor 966289-007-R4-J1-PDC patient-derived pancreatic adenocarcinoma cell line growth inhibition [RAS]
Details: for viability, T/C: stronger effect = lower value
In short: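 Multi-cell-type spheroids: tumor cells plus HUVEC endothelial cells and mesenchymal stem cells. RAS-pathway inhibitors were combined with targeted agents, each dosed in half-log steps down from clinical Cmax, or from 10 microM when Cmax was unknown.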

[1] = curve of first compound, second compound 0.0316 µM
[2] = curve of first compound, second compound 0.1 µM
[3] = curve of first compound, second compound 0.316 µM
[4] = curve of first compound, second compound 1 µM
[5] = curve of first compound, second compound 3.16 µM
[6] = curve of first compound, second compound 10 µM
[7] = second compound 0.0316 µM, first compound 0.0316 µM
[8] = second compound 0.0316 µM, first compound 0.1 µM
[9] = second compound 0.0316 µM, first compound 0.316 µM
[10] = second compound 0.0316 µM, first compound 1 µM
[11] = second compound 0.1 µM, first compound 0.0316 µM
[12] = second compound 0.1 µM, first compound 0.1 µM
[13] = second compound 0.1 µM, first compound 0.316 µM
[14] = second compound 0.1 µM, first compound 1 µM
[15] = second compound 0.316 µM, first compound 0.0316 µM
[16] = second compound 0.316 µM, first compound 0.1 µM
[17] = second compound 0.316 µM, first compound 0.316 µM
[18] = second compound 0.316 µM, first compound 1 µM
[19] = second compound 1 µM, first compound 0.0316 µM
[20] = second compound 1 µM, first compound 0.1 µM
[21] = second compound 1 µM, first compound 0.316 µM
[22] = second compound 1 µM, first compound 1 µM
[23] = second compound 3.16 µM, first compound 0.0316 µM
[24] = second compound 3.16 µM, first compound 0.1 µM
[25] = second compound 3.16 µM, first compound 0.316 µM
[26] = second compound 3.16 µM, first compound 1 µM
[27] = second compound 10 µM, first compound 0.0316 µM
[28] = second compound 10 µM, first compound 0.1 µM
[29] = second compound 10 µM, first compound 0.316 µM
[30] = second compound 10 µM, first compound 1 µM
[31] = second compound 0.0316 µM, first compound 3.16 µM
[32] = second compound 0.0316 µM, first compound 10 µM
[33] = second compound 0.1 µM, first compound 3.16 µM
[34] = second compound 0.1 µM, first compound 10 µM
[35] = second compound 0.316 µM, first compound 3.16 µM
[36] = second compound 0.316 µM, first compound 10 µM
[37] = second compound 1 µM, first compound 3.16 µM
[38] = second compound 1 µM, first compound 10 µM
[39] = second compound 3.16 µM, first compound 3.16 µM
[40] = second compound 3.16 µM, first compound 10 µM
[41] = second compound 10 µM, first compound 3.16 µM
[42] = second compound 10 µM, first compound 10 µM
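Note: spheroids exposed to agents for one week before readout.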
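Throughout, for viability, T/C: percent viability relative to DMSO vehicle control wells as 100%.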

C=CC(=O)N1CCN(c2nc(OCC3CCCN3C)nc3c(F)c(-c4nc(N)cc(C)c4C(F)(F)F)c(Cl)cc23)C(C)C1 (stereo unspecified) + C#Cc1c(F)ccc2cc(O)cc(-c3ncc4c(N5CC6CCC(C5)N6)nc(OCC56CCCN5CC(F)C6)nc4c3F)c12
IC50 [1]: > 1000 nM | IC50 [2]: > 1000 nM | IC50 [3]: > 1000 nM | IC50 [4]: > 1000 nM | IC50 [5]: > 1000 nM | IC50 [6]: > 1000 nM | viability, T/C (second compound 0.0316 µM, first compound 0.00316 µM): 106% | viability, T/C (second compound 0.0316 µM, first compound 0.01 µM): 99.5% | viability, T/C [7]: 88.7% | viability, T/C [8]: 98.2% | viability, T/C [9]: 108% | viability, T/C [10]: 91.5% | viability, T/C (second compound 0.1 µM, first compound 0.00316 µM): 108% | viability, T/C (second compound 0.1 µM, first compound 0.01 µM): 107% | viability, T/C [11]: 91.1% | viability, T/C [12]: 95.9% | viability, T/C [13]: 83.8% | viability, T/C [14]: 83.3% | viability, T/C (second compound 0.316 µM, first compound 0.00316 µM): 105% | viability, T/C (second compound 0.316 µM, first compound 0.01 µM): 99.5% | viability, T/C [15]: 102% | viability, T/C [16]: 99.7% | viability, T/C [17]: 97% | viability, T/C [18]: 80.7% | viability, T/C (second compound 1 µM, first compound 0.00316 µM): 97% | viability, T/C (second compound 1 µM, first compound 0.01 µM): 111% | viability, T/C [19]: 117% | viability, T/C [20]: 103% | viability, T/C [21]: 92.5% | viability, T/C [22]: 96.8% | viability, T/C (second compound 3.16 µM, first compound 0.00316 µM): 96.9% | viability, T/C (second compound 3.16 µM, first compound 0.01 µM): 107% | viability, T/C [23]: 113% | viability, T/C [24]: 102% | viability, T/C [25]: 110% | viability, T/C [26]: 92.7% | viability, T/C (second compound 10 µM, first compound 0.00316 µM): 118% | viability, T/C (second compound 10 µM, first compound 0.01 µM): 82.8% | viability, T/C [27]: 91.6% | viability, T/C [28]: 96.4% | viability, T/C [29]: 89.9% | viability, T/C [30]: 92.2%

CCC(CC)c1cc(NC2CCC(N)C2)n2nccc2n1 (stereo unspecified) + C#Cc1c(F)ccc2cc(O)cc(-c3ncc4c(N5CC6CCC(C5)N6)nc(OCC56CCCN5CC(F)C6)nc4c3F)c12
IC50 [1]: 1800 nM | IC50 [2]: 1870 nM | IC50 [3]: 1880 nM | IC50 [4]: 1880 nM | IC50 [5]: 1900 nM | IC50 [6]: 1810 nM | viability, T/C [7]: 99.4% | viability, T/C [8]: 87.7% | viability, T/C [9]: 97.2% | viability, T/C [10]: 111% | viability, T/C [31]: 2.83% | viability, T/C [32]: 2.78% | viability, T/C [11]: 91.1% | viability, T/C [12]: 97.8% | viability, T/C [13]: 106% | viability, T/C [14]: 133% | viability, T/C [33]: 2.38% | viability, T/C [34]: 2.61% | viability, T/C [15]: 93% | viability, T/C [16]: 95.1% | viability, T/C [17]: 106% | viability, T/C [18]: 137% | viability, T/C [35]: 2.97% | viability, T/C [36]: 2.55% | viability, T/C [19]: 90.4% | viability, T/C [20]: 93.1% | viability, T/C [21]: 116% | viability, T/C [22]: 127% | viability, T/C [37]: 2.97% | viability, T/C [38]: 2.86% | viability, T/C [23]: 100% | viability, T/C [24]: 94.9% | viability, T/C [25]: 116% | viability, T/C [26]: 126% | viability, T/C [39]: 2.6% | viability, T/C [40]: 2.57% | viability, T/C [27]: 86.1% | viability, T/C [28]: 88.7% | viability, T/C [29]: 111% | viability, T/C [30]: 122% | viability, T/C [41]: 0.62% | viability, T/C [42]: 0.86%

C[C@@H](NC(=O)c1ncnc(N)c1Cl)c1ncc(C(=O)Nc2cc(C(F)(F)F)c(Cl)cn2)s1 + C#Cc1c(F)ccc2cc(O)cc(-c3ncc4c(N5CC6CCC(C5)N6)nc(OCC56CCCN5CC(F)C6)nc4c3F)c12
IC50 [1]: > 10000 nM | IC50 [2]: > 10000 nM | IC50 [3]: > 10000 nM | IC50 [4]: > 10000 nM | IC50 [5]: > 10000 nM | IC50 [6]: > 10000 nM | viability, T/C [7]: 109% | viability, T/C [8]: 118% | viability, T/C [9]: 130% | viability, T/C [10]: 119% | viability, T/C [31]: 117% | viability, T/C [32]: 86.8% | viability, T/C [11]: 111% | viability, T/C [12]: 114% | viability, T/C [13]: 103% | viability, T/C [14]: 106% | viability, T/C [33]: 109% | viability, T/C [34]: 95.7% | viability, T/C [15]: 105% | viability, T/C [16]: 126% | viability, T/C [17]: 124% | viability, T/C [18]: 111% | viability, T/C [35]: 112% | viability, T/C [36]: 75.7% | viability, T/C [19]: 105% | viability, T/C [20]: 123% | viability, T/C [21]: 134% | viability, T/C [22]: 130% | viability, T/C [37]: 130% | viability, T/C [38]: 87.6% | viability, T/C [23]: 119% | viability, T/C [24]: 110% | viability, T/C [25]: 118% | viability, T/C [26]: 122% | viability, T/C [39]: 123% | viability, T/C [40]: 86% | viability, T/C [27]: 107% | viability, T/C [28]: 108% | viability, T/C [29]: 134% | viability, T/C [30]: 125% | viability, T/C [41]: 124% | viability, T/C [42]: 91.3%

CCC(CC)c1cc(NC2CCC(N)C2)n2nccc2n1 (stereo unspecified)
viability, T/C (compound 0.1 µM): 92.7% [middle of 4 runs] | viability, T/C (compound 0.316 µM): 109% [middle of 4 runs] | viability, T/C (compound 3.16 µM): 2.28% [middle of 4 runs] | viability, T/C (compound 10 µM): 2.13% [middle of 4 runs] | IC50 (curve of compound): 1.86 µM [middle of 4 runs]

NC1c2ccccc2OC12CCN(c1cnc3c(N4CCCc5ncccc54)n[nH]c3n1)CC2 (stereo unspecified)
viability, T/C (compound 0.1 µM): 92.9% [middle of 4 runs] | viability, T/C (compound 0.316 µM): 107% [middle of 4 runs] | viability, T/C (compound 1 µM): 116% and 63.2% and 101% (2×) | viability, T/C (compound 10 µM): 99.6% [middle of 4 runs] | IC50 (curve of compound): > 10000 nM
